The results in this text go back to ChEMBL document CHEMBL1140330, “Carbonic anhydrase inhibitors. Design of fluorescent sulfonamides as probes of tumor-associated carbonic anhydrase IX that inhibit isozyme IX-mediated acidification of hypoxic tumors” (J Med Chem, 2005).

Among the targets are Carbonic anhydrase 9 (Homo sapiens, UniProt Q16790); Carbonic anhydrase 2 (Homo sapiens, UniProt P00918); Carbonic anhydrase 1 (Homo sapiens, UniProt P00915).
Data set [1] in a line: in vitro. Particulars: human, whole blood; level measured in red blood cells.
Description: Compound level in Red Blood Cells at 48 h, after exposure of 10 mL of Blood to compound solution by HPLC method
Data set [2] in a line: in vitro. To be noted: human, whole blood; level measured in red blood cells. This is another data set of the same source.
Description: Compound level in Red Blood Cells at 30 min, after exposure of 10 mL of Blood to compound solution by HPLC method
Data set [3] in a line: in vitro. To be noted: human, whole blood; level measured in red blood cells. The source holds these as a separate data set.
Description: Compound level in Red Blood Cells at 60 min, after exposure of 10 mL of Blood to compound solution by HPLC method
Data set [4] is described as follows: in vitro. Particulars: human, whole blood; level measured in red blood cells. The source holds these as a separate data set.
Description: Compound level in Red Blood Cells at 48 h, after Exposure of 10 mL of Blood to Compound solution by electronic spectroscopic method
The nature of data set [5]: in vitro. To be noted: human, whole blood; level measured in red blood cells. This is another data set of the same source.
Description: Compound level in Red Blood Cells at 30 min, after exposure of 10 mL of Blood to compound solution by electronic spectroscopic method
Data set [6] is described as follows: in vitro. Particulars: human, whole blood; level measured in red blood cells. The source holds these as a separate data set.
Description: Compound level in Red Blood Cells at 60 min, after exposure of 10 mL of Blood to compound solution by electronic spectroscopic method

The structures appear in SMILES notation.

Sequence of Carbonic anhydrase 1 (P00915 whole entry): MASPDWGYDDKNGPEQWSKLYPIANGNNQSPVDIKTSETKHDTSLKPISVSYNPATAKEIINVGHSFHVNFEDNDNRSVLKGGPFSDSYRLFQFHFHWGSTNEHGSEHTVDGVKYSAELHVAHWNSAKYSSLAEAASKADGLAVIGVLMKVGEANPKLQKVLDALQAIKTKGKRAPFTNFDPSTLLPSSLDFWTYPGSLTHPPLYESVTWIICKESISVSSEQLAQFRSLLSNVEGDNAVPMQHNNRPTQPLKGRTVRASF
Description for Carbonic anhydrase 1: Inhibition constant against human (cloned) isozyme (hCA I) by the CO2 hydration method
Description for Carbonic anhydrase 2: Inhibition constant against human (cloned) isozyme (hCA II) by CO2 hydration method
Description for Carbonic anhydrase 9: Inhibition constant against human cloned isozyme (hCA IX) by CO2 hydration method

`NS(=O)(=O)c1ccc(/N=C(S)/N=C2/C=CC(=C3c4ccc(O)cc4Oc4cc(O)ccc43)C(C(=O)O)=C2)c(Cl)c1`: the Ki (in general, the equilibrium dissociation constant of an inhibitor or competing ligand from its target) at Carbonic anhydrase 9 stood at 32 nM; on Carbonic anhydrase 2, 52 nM; at Carbonic anhydrase 1, 950 nM.
Take `NS(=O)(=O)c1ccc(C/N=C(S)/N=C2/C=CC(=C3c4ccc(O)cc4Oc4cc(O)ccc43)C(C(=O)O)=C2)cc1`: the Ki at Carbonic anhydrase 9 turned out to be 26 nM; on Carbonic anhydrase 1 it was 1450 nM.
Take `CC(=O)/N=c1/sc(S(N)(=O)=O)nn1C` [METHAZOLAMIDE]: the concentration at 48 h turned out to be 167 µM in “in vitro [1]” and 169 µM in “in vitro [4]”. For the same compound, the concentration at 0.5 h turned out to be 170 µM in “in vitro [2]” and 169 µM in “in vitro [5]”. Also, the concentration at 1 h in “in vitro [3]” and in “in vitro [6]” was 168 µM throughout.
On to `Cc1cc(C)[n+](Cc2ccc(S(N)(=O)=O)cc2)cc1C.[O-][Cl+3]([O-])([O-])[O-]`, for which the Ki on Carbonic anhydrase 9 turned out to be 38 nM; at Carbonic anhydrase 2 it was 50 nM; on Carbonic anhydrase 1, 7000 nM. The values for the concentration at 48 h in “in vitro [1]” and in “in vitro [4]” were 0.3 µM and 0.5 µM, respectively. The concentration at 0.5 h in “in vitro [2]” is 0.3 µM; in “in vitro [5]”, 0.5 µM. The concentration at 1 h came out at 0.4 µM in “in vitro [3]” and 0.5 µM in the data set “in vitro [6]”.
For the compound `NS(=O)(=O)c1ccc(/N=C(S)/N=C2/C=CC(=C3c4ccc(O)cc4Oc4cc(O)ccc43)C(C(=O)O)=C2)c(I)c1`, the results for the Ki on Carbonic anhydrase 9, at Carbonic anhydrase 2 and on Carbonic anhydrase 1 were 31 nM, 40 nM and 1070 nM, respectively.
Take `NS(=O)(=O)c1ccc(CC/N=C(S)/N=C2/C=CC(=C3c4ccc(O)cc4Oc4cc(O)ccc43)C(C(=O)O)=C2)cc1`: the inhibition constant Ki at Carbonic anhydrase 1 was 1300 nM.
Consider `NCCc1ccc(S(N)(=O)=O)cc1`, for which the values for the concentration at 48 h in “in vitro [1]” and in the data set “in vitro [4]” were 167 µM and 168 µM, respectively. In addition, the concentration at 0.5 h was 132 µM in the data set “in vitro [2]” and 138 µM in the data set “in vitro [5]”. Besides, the concentration at 1 h in the data set “in vitro [3]” came out at 162 µM; in “in vitro [6]”, 165 µM.
On to `NS(=O)(=O)c1ccc(/N=C(S)/N=C2/C=CC(=C3c4ccc(O)cc4Oc4cc(O)ccc43)C(C(=O)O)=C2)c(Br)c1`, for which the Ki at Carbonic anhydrase 9 stood at 35 nM; on Carbonic anhydrase 2, 43 nM; at Carbonic anhydrase 1, 1100 nM.
Turning to `NS(=O)(=O)c1ccc(/N=C(S)/N=C2/C=CC(=C3c4ccc(O)cc4Oc4cc(O)ccc43)C(C(=O)O)=C2)c(F)c1`, the results for the inhibition constant Ki at Carbonic anhydrase 9 and on Carbonic anhydrase 1 were 30 nM and 980 nM, respectively.
